We go through seven compounds from patent US5726181A, “Formulations and compositions of poorly water soluble camptothecin derivatives” (BioNumerik Pharmaceuticals, Inc., priority 1995, dated 1998).

The conditions of series [1]: water; cited from earlier work.
The conditions of series [2]: oral vs intravenous solution; cited from earlier work.
Series [3] is described as follows: Lactone form / chemical stability in formulation. Format: physicochemical.
In series [4] the test system is advanced gastrointestinal cancer. Conditions: cited from earlier work.
For series [5], the system named is human patients with cancer. The following applies: Phase I and Phase II human trials; cited from earlier work.
For series [6] the following is noted: cited from earlier work.
A further series deals with malignant melanoma. Conditions: cited from earlier work.
Series [7] concerns human patients. The following applies: cited from earlier work.
Series [8] concerns human patients. Conditions: cited from earlier work. The source holds these as a separate data set.
[9] abbreviates: 15 mg/m^2 × 5, 9 patients treated.
Setting [10] is: 17 mg/m^2 × 5, 5 patients treated.
Where [11] appears, read: 20 mg/m^2 × 5, 10 patients treated.
Setting [12] is: 5-Day course (27 patients), 4 wks.
The mark [13] stands for this setting: 5-Day course (27 patients), 8 wks.
Setting [14] is: 5-Day course (27 patients), 12 wks.
The mark [15] stands for this setting: single dose 110 mg/m^2, 2 patients treated.
Where [16] appears, read: single dose 120 mg/m^2, 7 patients treated.
Setting [17] is: single dose 180 mg/m^2, 9 patients treated.
The mark [18] stands for this setting: single-dose method (34 patients), 3 wks.
The mark [19] stands for this setting: single-dose method (34 patients), 6 wks.
Where [20] appears, read: single-dose method (34 patients), 9 wks.
[21] abbreviates: single-dose method (34 patients), 12 wks.
Where [22] appears, read: 90-360 mg/m^2 every 2 weeks, fifteen patients.

Entries after “also recorded” stand apart in the source; their conditions may differ. Read-outs that look alike come from different tables or passages of the source.

Regarding `CCc1c2c(nc3ccccc13)-c1cc3c(c(=O)n1C2)COC(=O)[C@]3(O)CC` [7-ethyl camptothecin], the Water solubility entry in series [1] is listed as “less than 5 micrograms per milliliter of water”.
Regarding `CCC1(O)C(=O)OCc2c1cc1n(c2=O)Cc2cc3cc4c(cc3nc2-1)OCCO4` (stereo not shown) [10,11-ethylenedioxy-camptothecin, 10,11-ethylenedioxy camptothecin], in series [1], the Water solubility entry is listed as “less than 5 micrograms per milliliter of water”.
Regarding `COc1cc([C@@H]2c3cc4c(cc3[C@@H](O[C@@H]3O[C@@H]5CO[C@@H](C)O[C@H]5[C@H](O)[C@H]3O)[C@H]3COC(=O)[C@H]23)OCO4)cc(OC)c1O` [etoposide], the “Bioavailability following oral administration” value in [2] is recorded as “substantially equivalent to that achieved by intravenous administration”.
For the compound `CN1CCCC1=O` [NMP, N-methyl-2-pyrrolidinone], in series [3], the “Chemical reactivity of NMP with HLCD” value is reported as “inert with respect to undesirable chemical reactions with HLCD; also recorded: chemically inert with respect to poorly water soluble camptothecins”.
In the case of `CCc1c2c(nc3ccc(O)cc13)-c1cc3c(c(=O)n1C2)COC(=O)[C@]3(O)CC` [7-ethyl-10-hydroxy camptothecin], in series [1], the Water solubility result is “less than 5 micrograms per milliliter of water”.
For `CCC1(O)C(=O)OCc2c1cc1n(c2=O)Cc2cc3cc4c(cc3nc2-1)OCO4` (stereo not shown) [10,11-Methylenedioxy camptothecin, 10,11-methylenedioxy camptothecin], in [1], the Water solubility result was “less than 5 micrograms per milliliter of water”.
In the case of `CC[C@@](O)(C(=O)O)c1cc2n(c(=O)c1CO)Cc1cc3ccccc3nc1-2` [SCPT], the “No. of patients with Cystitis” value is recorded as 1 patients in series [4] (11 mg/m^2 × 5, 2 patients treated); 4 patients in series [4] (setting [9]); 2 patients in series [4] (setting [10]); 6 patients in series [4] (setting [11]); 1 patients in series [4] (single dose 90 mg/m^2, 10 patients treated); 2 patients in series [4] (single dose 100 mg/m^2, 6 patients treated). Also, the “No. of patients with Cystitis” value is reported as 1 patients in series [4] (setting [15]), 2 patients in series [4] (setting [16]) and 3 patients in [4] (setting [17]). The “No. of patients with Diarrhea” value in series [4] (setting [9]) is on record as 1 patients; in series [4] (setting [10]), 4 patients; in series [4] (setting [11]) it was 4 patients; in series [4] (22 mg/m^2 × 5, 1 patient treated) it was 1 patients; in series [4] (setting [15]) it was 1 patients; in [4] (setting [16]), 4 patients. In addition, the “No. of patients with Diarrhea” value in series [4] (setting [17]) is listed as 2 patients. Besides, the “Improvement at 3 months” value in [4] (3 months, 61 patients) was “none showed improvement at 3 months”. Moreover, the “Objective Responses: Improved” value in [4] (setting [12]) is given as 1 patients; in series [4] (setting [18]), 4 patients; in series [4] (setting [19]), 2 patients; in series [4] (setting [20]) it was 2 patients. For the same compound, the “Objective Responses: Stable” value in [4] (setting [12]) was 12 patients; in series [4] (setting [13]), 7 patients; in [4] (setting [14]), 6 patients; in series [4] (setting [18]) it was 17 patients; in series [4] (setting [19]), 1i; in [4] (setting [20]), 8 patients. Further, the “Objective Responses: Stable” value in series [4] (setting [21]) was 6 patients. Also, the “Objective Responses: Worse” value in series [4] (setting [12]) is recorded as 14 patients; in [4] (setting [13]), 20 patients; in series [4] (setting [14]), 21 patients; in series [4] (setting [18]) it was 13 patients; in series [4] (setting [19]) it was 21 patients; in series [4] (setting [20]) it was 24 patients. In addition, the “Objective Responses: Worse” value in [4] (setting [21]) is 28 patients. The “Cystitis (% of 27 patients)” value in series [4] (5-Day course, P < 0.05) is on record as 48%. In addition, the “Cystitis (% of 34 patients)” value in series [4] (Single dose) is reported as 24%. Further, in series [4] (after 2 months (8 or 9 weeks), 61 patients), the Partial objective improvement result was “only two of their 61 patients”. The “Patients with 25%-50% response” value in series [4] (at 3 wks only) is reported as 3 patients. For the same compound, the “Diarrhea, severity and persistence” value in [4] (higher doses) was “could be quite severe to the point of fecal incontinence and persistent for as long as 4 weeks”. Moreover, in [4] (in vivo), the “Onset of cystitis after treatment” value was 7 to 10 days. For the same compound, in series [4] (prolonged (5-day) vs single-dose schedule at a given total dose), the “Severity of toxicity by schedule” value was “more prolonged schedule produced more severe toxicity at a given total dose level”. Further, the “Antitumor activity in early trials” value in [5] is “lack of consistent antitumor activity”. In addition, the “Toxicity in early trials” value in series [5] was “unpredictable and severe myelosuppression,gastrointestinal toxicity, hemorrhagic cystitis, and alopecia”. Moreover, the “Plasma camptothecin levels, relation to dose” value in series [6] (24 hours after SCPT, once daily×5, 6.5-20 mg/m^2/day) is “plasma camptothecin levels have little relation to the dose given”. In addition, the Severe toxic effects entry in series [6] (patients with obvious renal disease excluded) is given as “Severe toxic effects including cystitis occurred”. The “50% or greater decrease in tumor diameter” value in the series on malignant melanoma (setting [22]) is “None of the patients had a 50% or greater decrease in tumor diameter”. For the same compound, the Transient tumor regression entry with malignant melanoma (setting [22]) was “Less pronounced transient tumor regression was noted in three patients”. Further, in the series on malignant melanoma (90-360 mg/m^2 every 2 weeks), the “Disease in remaining patients” value was “no change or progression in their disease”. The Alopecia in the series on malignant melanoma (fifteen patients) was 8 patients. Besides, the Diarrhea in the series with malignant melanoma (fifteen patients) was 3 patients. For the same compound, the Hemorrhagic cystitis in the series on malignant melanoma (fifteen patients) was 1 patients. In addition, in the series on malignant melanoma (fifteen patients), the Myelosuppression is recorded as 11 patients. In the series with malignant melanoma (fifteen patients), the Nausea and vomiting is recorded as 9 patients. Further, the “Bladder toxicity, dose limiting” value with human patients [7] (20 to 30 mg/m^2) is “dose limiting in three patients”. In the series with human patients [7] (44 and 30 mg/m^2), the “Bladder toxicity, additional patients” value is “two additional patients”. In the series on human patients [7] (daily treatment, total dose of 100 mg/m^2), the “Leukopenia, incidence” value is “four of six patients”. In addition, the “Leukopenia, duration” value in the series with human patients [7] (daily vs weekly treatment) is given as “more prolonged after daily treatment than after weekly treatment”. Moreover, in the series with human patients [7] (dose-limiting toxic effect), the Leukopenia result is reported as “Reversible leukopenia was the major dose-limiting toxic effect”. Moreover, in the series on human patients [7] (eight patients with measurable disease, 5-day courses at dose levels associated with toxicity), the Clinical benefit entry is “No clinical benefit was observed”. Besides, the Clinical responses entry in the series on human patients [7] (weekly courses, evaluable patients) is reported as “two of ten patients”. In addition, the “Mean urine recovery of camptothecin, excluding patients with impaired urinary excretion” value in the series with human patients [8] (5 patients with impaired urinary excretion excluded, i.v., 2880 min) is 22.8%. For the same compound, the “Urinary appearance of unmetabolized camptothecin” value in the series with human patients [8] (after i.v. drug administration) is “unmetabolized camptothecin in high concentrations rapidly appeared in the urine”. In addition, the “Mean urine recovery of camptothecin” value in the series with human patients [8] (first 48 hours, i.v.) is given as 17.4%. Besides, the “Urine recovery of camptothecin (range)” value in the series with human patients [8] (first 48 hours, i.v.) is 3.6-38.9%. The “Time course of urinary drug excretion” value with human patients [8] (i.v.) is listed as “most of the drug excretion occurring in the initial 12 hours”. Further, the Sterile hemorrhagic cystitis with human patients [8] (moderately dehydrated patients) is on record as 3 patients.
